From patent publication US20260102418A1, “An anti-influenza virus derivative and uses thereof” (Shijiazhuang Discovery Medicine Technology Co., Ltd., priority 2022, published 2026) come the findings set out here.

Data set [1] is described as follows: in vitro. Conditions: dog.
For data set [2], the system named is influenza virus (A/HPB/359/95 (H3N2)). Kind of data set: organism not typed. To be noted: MDCK, read-out: Anti-IAV EC50.
Data set [3] relates to A/WSN/33 (H1N1). The experiment in a line: Antiviral CPE assay in MDCK, other influenza strains. The format is cell-based, influenza A virus (IAV). Conditions: Influenza A virus, CPE method.
The test system of data set [4] is B/Massachusetts/2/2012 (BY-3). The data set is described as above. Conditions: Influenza B virus. Type of data set: cell-based.
Data set [5] concerns B/Beijing-Haidian/1386/2013 (BV). The data set is described as above. Type of data set: cell-based. To be noted: Influenza B virus, CPE method.
The test system of data set [6] is A/PR/8/34 (H1N1) (PR8). The description is as above. The format is cell-based, influenza A virus (IAV). Conditions: Influenza A virus, CPE method.
Data set [7] concerns influenza virus (A/HPB/359/95 (H3N2)).
In data set [8] the test system is A/PR/8/34 (H1N1) virus. The experiment in a line: Virus titer test and histopathological examination in influenza virus mouse model. To be noted: for lung tissue pathology examination: left lung 5 days after infection. Type of data set: in vivo, C57BL/6J mice. How it is done: Fifteen C57BL/6J mice (female, 8 weeks, 18-20 g) were divided into 5 groups (group A, group B, group C, group D and group E), 3 in each group. After intranasal inoculation with a semi-lethal dose of A/PR/8/34 (H1N1) virus, group A/group B/group C were respectively given intragastric administration of test drugs (group A: DS1494; group B: DS1833; group C: M42, all suspended in 1% methylcellulose solution, and the dosage of each group was 2 mg/kg), group D was given oral gavage with the same volume of 1% methylcellulose solution, and group E was given intraperitoneal injection of test drug DS1835 (the dosage was 1.4 mg/kg, dissolved in physiological saline), and each group was given drug administration once a day. Lung tissue samples were collected 5 days after infection, the left lung was examined for pathology, and the right lung was homogenized for TCID50 determination.

Data set [9] in a line: Cytotoxicity test in MDCK cells (CPE method, 72 hours). To be noted: dog.
Data set [10] concerns MDCK cells. The data set is described as above. Conditions: read-out: TC50 in MDCK; MDCK cells, 72 hours, CPE method.
The mark [11] stands for this setting: HD = B/Beijing-Haidian/1386/2013 (BV).
Where [12] appears, read: PR8 = A/Puerto Rico/8/1934(H1N1), MDCK.
Setting [13] is: 2 mg/kg intragastric once a day.

“Also recorded” adds a separate entry of the source. Where two headings read alike, the source gives them in different places. A value given as a limit tells only on which side of the number the result lay.

A word on the EC50: it is the concentration at which the effect is half-maximal.

In data set [1], `O=C1c2c(OCOP3(=O)OCCCO3)c(=O)ccn2N([C@@H]2c3ccccc3[Se]Cc3c2ccc(F)c3F)[C@@H]2COC3(CC3)CN12` [DS15812] gave a CC50 of more than 20000 nM. The concentration giving a half-maximal response (EC50) in [2] turned out to be 0.25 ± 0.03 nM.
`[2H][C@@]1(N2[C@@H]3COC4(CC4)CN3C(=O)c3c(OP(=O)(O)O)c(=O)ccn32)c2ccccc2[Se]Cc2c1ccc(F)c2F` [DS14911] displayed a CC50 in data set [1] of more than 20000 nM. In addition, the EC50 in [2] came out at 0.19 ± 0.03 nM.
`[2H]C([2H])([2H])OC(=O)OCOc1c2n(ccc1=O)N([C@]1([2H])c3ccccc3SCc3c1ccc(F)c3F)[C@@H]1COC3(CC3)CN1C2=O` [DS1838] displayed a CC50 at 72 h in data set [1] of more than 20000 nM. The EC50 in data set [2] worked out at 0.52 ± 0.04 nM.
As to `[2H][C@@]1(N2[C@@H]3COC4(CC4)CN3C(=O)c3c(O)c(=O)ccn32)c2ccccc2[Se]Cc2c1ccc(F)c2F` [DS1492], the CC50 in data set [1] was more than 20000 nM. The 50% effective concentration (EC50) in data set [2] was found to be 0.14 ± 0.03 nM.
For `O=C1c2c(OCOP(=O)(OCc3ccccc3)OCc3ccccc3)c(=O)ccn2N([C@@H]2c3ccccc3[Se]Cc3c2ccc(F)c3F)[C@@H]2COC3(CC3)CN12` [DS1832], in that order: more than 20000 nM and 0.21 ± 0.03 nM.
Consider `[2H]C([2H])([2H])OC(=O)OCOc1c2n(ccc1=O)N([C@@H]1c3ccccc3SCc3c1ccc(F)c3F)[C@@H]1COC3(CC3)CN1C2=O` [DS1837], for which the EC50 in [3] was 0.00136 ± 0.00022 µM; in data set [4] (MDCK), 0.00588 ± 0.00091 µM; in [5] (setting [11]), 0.00565 ± 0.00073 µM; in data set [6] (setting [12]) it was 0.00126 ± 0.00047 µM; in data set [2], 0.65 ± 0.03 nM. In addition, the CC50 at 72 h in data set [1] is more than 20000 nM.
On to `O=C1c2c(OCOP(=O)(O)O)c(=O)ccn2N([C@@H]2c3ccccc3[Se]Cc3c2ccc(F)c3F)[C@@H]2COC3(CC3)CN12` [DS14915], for which the EC50 in [3] came out at 0.00113 ± 0.00031 µM; in [4] (MDCK) it was 0.00218 ± 0.00056 µM; in data set [5] (setting [11]), 0.00247 ± 0.00048 µM; in [6] (setting [12]) it was 0.00097 ± 0.00036 µM.
In data set [1], `O=C1c2c(O)c(=O)ccn2N([C@@H]2c3ccccc3[Se]Cc3c2ccc(F)c3F)[C@@H]2COC3(CC3)CN12` [DS1491] displayed a CC50 of more than 20000 nM. Also, in data set [7], the “therapeutic index (TC50/EC50)” value is recorded as “higher therapeutic index”. For the same compound, the concentration giving a half-maximal response (EC50) in data set [2] was 0.2 ± 0.01 nM.
Compound `O=C1c2c(OCOP(=O)(O)O)c(=O)ccn2N([C@@H]2c3ccccc3[Se]Cc3c2ccc(F)c3F)[C@@H]2COC3(CC3)CN12` [DS1497] came in with a CC50 in [1] of more than 20000 nM. Besides, the 50% effective concentration (EC50) in data set [2] amounted to 0.37 ± 0.04 nM.
For `COC(=O)OCOc1c2n(ccc1=O)N([C@]1(C)c3ccccc3[Se]Cc3c1ccc(F)c3F)[C@@H]1COC3(CC3)CN1C2=O` [DS1496], the CC50 in [1] is more than 20000 nM. Besides, in [2], the EC50 is 0.43 ± 0.02 nM.
In data set [1], `C[C@@]1(N2[C@@H]3COC4(CC4)CN3C(=O)c3c(OCOP(=O)(O)O)c(=O)ccn32)c2ccccc2[Se]Cc2c1ccc(F)c2F` [DS1499] returned a CC50 of more than 20000 nM. Besides, in [2], the EC50 was 0.29 ± 0.02 nM.
Consider `O=C1c2c(O)c(=O)ccn2N([C@@H]2c3ccccc3[Se]Cc3c2ccc(F)c3F)[C@@H]2COC3(CC3)CN12` [DS1835], for which the “lung tissue pathology examination” value in [8] (1.4 mg/kg intraperitoneal injection once a day) was “clear bronchial structure, and the epithelial cells had complete morphology and neat arrangement”. In data set [8] (1.4 mg/kg intraperitoneal injection once a day, right lung TCID50 5 days after infection), the “lung tissue virus titer” value is on record as “lowest lung tissue virus titer”.
As for `O=C1c2c(O)c(=O)ccn2N([C@@H]2c3ccccc3SCc3c2ccc(F)c3F)[C@@H]2COC3(CC3)CN12` [Compound M41, reference compound], in data set [9] (MDCK cells), the CC50 at 72 h was more than 20000 nM. Further, the EC50 in [2] came to 0.63 ± 0.03 nM.
Take `COC(=O)OCOc1c2n(ccc1=O)N([C@@H]1c3ccccc3[Se]Cc3c1ccc(F)c3F)[C@@H]1COCCN1C2=O` [Compound M43, reference compound]: the results for the EC50 in [4] (MDCK) and in [5] (setting [11]) were 0.0113 ± 0.00253 µM and 0.00839 ± 0.00175 µM, respectively.
In data set [1], `CCOP(=O)(OCC)OCOc1c2n(ccc1=O)N([C@@H]1c3ccccc3[Se]Cc3c1ccc(F)c3F)[C@@H]1COC3(CC3)CN1C2=O` [DS1831] came in with a CC50 of more than 20000 nM. In addition, in data set [2], the 50% effective concentration (EC50) amounted to 0.19 ± 0.02 nM.
Regarding `[2H][C@@]1(N2[C@@H]3COC4(CC4)CN3C(=O)c3c(OCOC(=O)OC)c(=O)ccn32)c2ccccc2[Se]Cc2c1ccc(F)c2F` [DS1495], in [1], the CC50 was more than 20000 nM. Also, the concentration for a half-maximal effect (EC50) in [2] was 0.28 ± 0.03 nM.
`[2H]C([2H])([2H])OC(=O)OCOc1c2n(ccc1=O)N([C@]1([2H])c3ccccc3[Se]Cc3c1ccc(F)c3F)[C@@H]1COC3(CC3)CN1C2=O` [DS1834] gave a CC50 in data set [1] of more than 20000 nM. Also, the half-maximal effective concentration (EC50) in data set [2] is 0.1 ± 0.01 nM.
In the case of `[2H]C([2H])([2H])OC(=O)OCOc1c2n(ccc1=O)N([C@@H]1c3ccccc3[Se]Cc3c1ccc(F)c3F)[C@@H]1COC3(CC3)CN1C2=O` [DS1833], the EC50 in data set [3] worked out at 0.00102 ± 0.00027 µM; in data set [4] (MDCK) it was 0.00277 ± 0.00075 µM; in data set [5] (setting [11]), 0.00338 ± 0.00067 µM; in data set [6] (setting [12]), 0.00089 ± 0.00022 µM; in data set [2], 0.11 ± 0.02 nM. Moreover, the “lung tissue pathology examination” value in data set [8] (setting [13]) is “clear bronchial structure, and the epithelial cells were arranged neatly with a small amount of inflammatory cell infiltration”. Further, in data set [8] (2 mg/kg intragastric once a day, right lung TCID50 5 days after infection), the “lung tissue virus titers compared with M42 at the same dose” value is given as “lower”. In data set [1], this compound had a CC50 of more than 20000 nM.
In turn, `C[C@@]1(N2[C@@H]3COC4(CC4)CN3C(=O)c3c(OP(=O)(O)O)c(=O)ccn32)c2ccccc2[Se]Cc2c1ccc(F)c2F` [DS14912] returned a CC50 in [1] of more than 20000 nM. Moreover, the EC50 in data set [2] worked out at 0.17 ± 0.01 nM.
Turning to `O=C1c2c(OP(=O)(O)O)c(=O)ccn2N([C@@H]2c3ccccc3[Se]Cc3c2ccc(F)c3F)[C@@H]2COC3(CC3)CN12` [DS14910], in data set [1], the CC50 was more than 20000 nM. Besides, the concentration for a half-maximal effect (EC50) in data set [2] was determined as 0.21 ± 0.02 nM.
`C[C@@]1(N2[C@@H]3COC4(CC4)CN3C(=O)c3c(O)c(=O)ccn32)c2ccccc2[Se]Cc2c1ccc(F)c2F` [DS1493] registered a CC50 in data set [1] of more than 20000 nM. In data set [7], the “therapeutic index (TC50/EC50)” value is “higher therapeutic index”. The 50% effective concentration (EC50) in data set [2] was determined as 0.1 ± 0.01 nM.
Regarding Baricitinib, the CC50 in [10] is more than 20000 nM.
For the compound `COC(=O)OCOc1c2n(ccc1=O)N([C@@H]1c3ccccc3SCc3c1ccc(F)c3F)[C@@H]1COC3(CC3)CN1C2=O` [Compound M42, reference compound], the concentration for a half-maximal effect (EC50) in data set [3] was found to be 0.00228 ± 0.00042 µM; in data set [4] (MDCK), 0.00724 ± 0.00136 µM; in [5] (setting [11]), 0.00621 ± 0.00109 µM; in data set [6] (setting [12]) it was 0.00193 ± 0.00055 µM; in data set [2], 0.76 ± 0.04 nM. Besides, in data set [8] (setting [13]), the “lung tissue pathology examination” value is “clear bronchial structure, and the epithelial cells were arranged neatly with a small amount of inflammatory cell infiltration; also recorded: a small amount of epithelial cell necrosis was observed”. For the same compound, in data set [1], the CC50 was more than 20000 nM.
In turn, `[2H][C@@]1(N2[C@@H]3COC4(CC4)CN3C(=O)c3c(OCOP(=O)(O)O)c(=O)ccn32)c2ccccc2[Se]Cc2c1ccc(F)c2F` [DS1498] had a CC50 at 72 h in data set [9] of more than 20000 nM. Further, the EC50 in data set [2] was found to be 0.31 ± 0.02 nM.
For the compound `NC(=O)c1ncn([C@@H]2O[C@H](CO)[C@@H](O)[C@H]2O)n1` [Ribavirin, reference compound], the EC50 is 27.2 ± 2.79 µM in [3] (Ribavirin in μM); 33.1 ± 3.29 µM in data set [4] (BY-3, MDCK, CPE method, Ribavirin in μM, read-out: EC50); 34.5 ± 4.85 µM in [5] (HD, Ribavirin in μM); 29.6 ± 3.11 µM in data set [6] (PR8, MDCK, Ribavirin in μM).
